In one assay the test system is MCF7. Briefly: Antiproliferative activity against human MCF7 cells after 48 hrs by MTT assay. In kind it is functional, cell-based. The note with it: MCF7, 48 h.
The test system of the next assay is HepG2. As to the kind of experiment: Antiproliferative activity against human HepG2 cells after 48 hrs by MTT assay. The note with it: HepG2, 48 h. Type of assay: functional, cell-based. (Tetrazolium dyes change colour on reduction, which living cells bring about.)
The test system of a further assay is L02. As to the kind of experiment: Antiproliferative activity against human L02 cells after 48 hrs by MTT assay. Type of assay: cell-based. The note with it: L02, 48 h.
For the next assay, the system named is HCT-116. Briefly: Antiproliferative activity against human HCT116 cells after 48 hrs by MTT assay. In kind it is functional, cell-based. The note with it: HCT-116, 48 h.
The test system of another assay is A549. As to the kind of experiment: Antiproliferative activity against human A549 cells after 48 hrs by MTT assay. In kind it is functional, cell-based. The note with it: A549, 48 h.
A further assay relates to HUVEC. As to the kind of experiment: Antiproliferative activity against human HUVEC cells after 48 hrs by MTT assay. Type of assay: cell-based.

Bounds are passed on as bounds.

Consider 28 compounds from ChEMBL document CHEMBL4033663, “Design, combinatorial synthesis and biological evaluations of novel 3-amino-1'-((1-aryl-1H-1,2,3-triazol-5-yl)methyl)-2'-oxospiro[benzo[a] pyrano[2,3-c]phenazine-1,3'-indoline]-2-carbonitrile antitumor hybrid molecules” (Eur J Med Chem, 2017).

As usually defined, the IC50 is the concentration needed to halve the response being measured. Read a high IC50 as a need for much substance. Consider `N#CC1=C(N)Oc2c(N)cc3nc4ccccc4nc3c2C12C(=O)N(Cc1cnnn1-c1ccc(Cl)cc1[N+](=O)[O-])c1ccccc12` (stereo not drawn), for which the IC50 is above 50 µM in the assay with MCF7; above 50 µM in the assay on HepG2; above 50 µM in the assay on L02; 28.7 µM with HCT-116; above 50 µM in the assay on A549; above 50 µM in the assay on HUVEC.

As to `N#CC1=C(N)Oc2c(c3nc4ccccc4nc3c3ccccc23)C12C(=O)N(Cc1cnnn1-c1cccc(Cl)c1)c1ccccc12` (stereo not drawn), the IC50 in the assay on MCF7 is 43.6 µM; in the assay with HepG2, above 50 µM; in the assay with L02 it was 35.2 µM; in the assay on HCT-116 it was above 50 µM; with A549, 32.6 µM; with HUVEC it was above 50 µM.

Consider `CCc1cccc(CC)c1-n1nncc1CN1C(=O)C2(C(C#N)=C(N)Oc3c(N)cc4nc5ccccc5nc4c32)c2ccccc21` (stereo not drawn), for which the IC50 was above 50 µM in the assay with MCF7; 16.5 µM in the assay with HepG2; above 50 µM in the assay with L02; 37.6 µM with HCT-116; above 50 µM with A549; above 50 µM in the assay with HUVEC.

In the case of `N#CC1=C(N)Oc2c(c3nc4ccccc4nc3c3ccccc23)C12C(=O)N(Cc1cnnn1-c1ccc(F)cc1)c1ccccc12` (stereo not drawn), the IC50 with MCF7, in the assay with HepG2, in the assay on L02, in the assay with HCT-116, in the assay on A549 and in the assay on HUVEC was above 50 µM in each case.

Turning to `Cc1cccc(-n2nncc2CN2C(=O)C3(C(C#N)=C(N)Oc4c(N)cc5nc6ccccc6nc5c43)c3ccccc32)c1` (stereo not drawn), the IC50 with MCF7 is above 50 µM; with HepG2, above 50 µM; in the assay on L02, above 50 µM; in the assay on HCT-116 it was above 50 µM; in the assay on A549, 12.3 µM; in the assay with HUVEC, above 50 µM.

As to `N#CC1=C(N)Oc2c(N)cc3nc4ccccc4nc3c2C12C(=O)N(Cc1cnnn1-c1ccc(F)c(Cl)c1)c1ccccc12` (stereo not drawn), the IC50 was 17.8 µM in the assay on MCF7; above 50 µM in the assay on HepG2; above 50 µM in the assay on L02; above 50 µM with HCT-116; 43.4 µM in the assay on A549; above 50 µM in the assay on HUVEC.

On to `COc1ccc(-n2nncc2CN2C(=O)C3(C(C#N)=C(N)Oc4c3c3nc5ccccc5nc3c3ccccc43)c3ccccc32)cc1` (stereo not drawn), for which the IC50 in the assay with MCF7, with HepG2, in the assay on L02, in the assay on HCT-116, with A549 and with HUVEC was above 50 µM each time.

Regarding `Cc1ccc(-n2nncc2CN2C(=O)C3(C(C#N)=C(N)Oc4c(N)cc5nc6ccccc6nc5c43)c3ccccc32)cc1C` (stereo not drawn), the IC50 in the assay on MCF7, in the assay with HepG2, in the assay on L02, in the assay on HCT-116, in the assay on A549 and with HUVEC was above 50 µM throughout.

In the case of `COc1ccc(OC)c(-n2nncc2CN2C(=O)C3(C(C#N)=C(N)Oc4c(N)cc5nc6ccccc6nc5c43)c3ccccc32)c1` (stereo not drawn), the IC50 with MCF7 was 28.1 µM; in the assay on HepG2 it was 45.1 µM; with L02, above 50 µM; with HCT-116, above 50 µM; in the assay on A549, 28.1 µM; with HUVEC, above 50 µM.

Regarding `CCc1cccc(C)c1-n1nncc1CN1C(=O)C2(C(C#N)=C(N)Oc3c(N)cc4nc5ccccc5nc4c32)c2ccccc21` (stereo not drawn), the IC50 in the assay on MCF7, in the assay on HepG2, in the assay on L02, in the assay with HCT-116, in the assay on A549 and in the assay with HUVEC was above 50 µM throughout.

`Cc1ccc(-n2nncc2CN2C(=O)C3(C(C#N)=C(N)Oc4c3c3nc5ccccc5nc3c3ccccc43)c3ccccc32)c(C)c1` (stereo not drawn): the IC50 with MCF7, with HepG2, in the assay with L02, in the assay on HCT-116, with A549 and with HUVEC was above 50 µM throughout.

Regarding `Cc1ccc(-n2nncc2CN2C(=O)C3(C(C#N)=C(N)Oc4c3c3nc5ccccc5nc3c3ccccc43)c3ccccc32)cc1C` (stereo not drawn), the IC50 in the assay on MCF7, in the assay on HepG2, with L02, in the assay on HCT-116, in the assay with A549 and in the assay with HUVEC was above 50 µM each time.

Consider `COc1ccc(-n2nncc2CN2C(=O)C3(C(C#N)=C(N)Oc4c(N)cc5nc6ccccc6nc5c43)c3ccccc32)cc1` (stereo not drawn), for which the IC50 in the assay on MCF7, in the assay with HepG2, in the assay with L02, in the assay on HCT-116, with A549 and in the assay on HUVEC was above 50 µM in each case.

With `CCOc1ccc(-n2nncc2CN2C(=O)C3(C(C#N)=C(N)Oc4c3c3nc5ccccc5nc3c3ccccc43)c3ccccc32)cc1` (stereo not drawn), the IC50 was above 50 µM in the assay on MCF7; above 50 µM in the assay on HepG2; above 50 µM in the assay with L02; above 50 µM in the assay with HCT-116; 25.2 µM with A549; above 50 µM in the assay on HUVEC.

`N#CC1=C(N)Oc2c(c3nc4ccccc4nc3c3ccccc23)C12C(=O)N(Cc1cnnn1-c1cc(Cl)ccc1Cl)c1ccccc12` (stereo not drawn): the IC50 in the assay with MCF7, in the assay with HepG2, in the assay with L02, in the assay on HCT-116, in the assay on A549 and with HUVEC was above 50 µM each time.

For `N#CC1=C(N)Oc2c(N)cc3nc4ccccc4nc3c2C12C(=O)N(Cc1cnnn1-c1ccccc1Cl)c1ccccc12` (stereo not drawn), the IC50 in the assay on MCF7 was 34.4 µM; with HepG2, 33.5 µM; with L02 it was above 50 µM; in the assay with HCT-116, above 50 µM; in the assay with A549, 29.8 µM; with HUVEC it was above 50 µM.

Take `N#CC1=C(N)Oc2c(N)cc3nc4ccccc4nc3c2C12C(=O)N(Cc1cnnn1-c1c(Cl)cc(Cl)cc1Cl)c1ccccc12` (stereo not drawn): the IC50 with MCF7 is 37.8 µM; in the assay with HepG2, 37.8 µM; in the assay with L02 it was above 50 µM; in the assay with HCT-116 it was 12.1 µM; in the assay on A549 it was above 50 µM; in the assay with HUVEC, 18.3 µM.

Regarding `N#CC1=C(N)Oc2c(N)cc3nc4ccccc4nc3c2C12C(=O)N(Cc1cnnn1-c1c(F)cccc1F)c1ccccc12` (stereo not drawn), the IC50 in the assay with MCF7, in the assay with HepG2, with L02, with HCT-116, in the assay with A549 and with HUVEC was above 50 µM each time.

Turning to `N#CC1=C(N)Oc2c(c3nc4ccccc4nc3c3ccccc23)C12C(=O)N(Cc1cnnn1-c1ccc(S(N)(=O)=O)cc1)c1ccccc12` (stereo not drawn), the IC50 in the assay with MCF7 was above 50 µM; with HepG2 it was 42.2 µM; in the assay with L02, above 50 µM; in the assay with HCT-116, 31.2 µM; with A549, above 50 µM; with HUVEC, above 50 µM.

As for `N#CC1=C(N)Oc2c(c3nc4ccccc4nc3c3ccccc23)C12C(=O)N(Cc1cnnn1-c1ccccc1Cl)c1ccccc12` (stereo not drawn), the IC50 was above 50 µM with MCF7; above 50 µM in the assay with HepG2; above 50 µM with L02; above 50 µM in the assay on HCT-116; 42.6 µM in the assay on A549; above 50 µM in the assay on HUVEC.

Take `N#CC1=C(N)Oc2c(c3nc4ccccc4nc3c3ccccc23)C12C(=O)N(Cc1cnnn1-c1ccc(Br)cc1)c1ccccc12` (stereo not drawn): the IC50 is 36.6 µM in the assay with MCF7; above 50 µM with HepG2; above 50 µM with L02; above 50 µM in the assay with HCT-116; 44.3 µM in the assay on A549; above 50 µM in the assay on HUVEC.

For the compound `N#CC1=C(N)Oc2c(c3nc4ccccc4nc3c3ccccc23)C12C(=O)N(Cc1cnnn1-c1ccc(Cl)cc1)c1ccccc12` (stereo not drawn), the IC50 in the assay on MCF7, in the assay with HepG2, in the assay with L02, in the assay with HCT-116, with A549 and in the assay on HUVEC was above 50 µM each time.

For the compound `N#CC1=C(N)Oc2c(c3nc4ccccc4nc3c3ccccc23)C12C(=O)N(Cc1cnnn1-c1cccc(Br)c1)c1ccccc12` (stereo not drawn), the 50% inhibitory concentration (IC50) in the assay on MCF7, with HepG2, with L02, in the assay on HCT-116, in the assay with A549 and with HUVEC was above 50 µM in each case.

For the compound `N#CC1=C(N)Oc2c(N)cc3nc4ccccc4nc3c2C12C(=O)N(Cc1cnnn1-c1ccc([N+](=O)[O-])cc1[N+](=O)[O-])c1ccccc12` (stereo not drawn), the concentration for half-maximal inhibition (IC50) in the assay on MCF7 was 20.9 µM; with HepG2, 18.4 µM; in the assay with L02, 22.8 µM; in the assay on HCT-116 it was 23.9 µM; in the assay with A549, above 50 µM; with HUVEC, above 50 µM.

For `Cc1cc(C)c(-n2nncc2CN2C(=O)C3(C(C#N)=C(N)Oc4c(N)cc5nc6ccccc6nc5c43)c3ccccc32)c(C)c1` (stereo not drawn), the IC50 is above 50 µM in the assay on MCF7; 48.1 µM with HepG2; above 50 µM in the assay with L02; above 50 µM in the assay with HCT-116; 12.7 µM in the assay on A549; above 50 µM with HUVEC.

Consider `Cc1ccccc1-n1nncc1CN1C(=O)C2(C(C#N)=C(N)Oc3c2c2nc4ccccc4nc2c2ccccc32)c2ccccc21` (stereo not drawn), for which the IC50 with MCF7, with HepG2, with L02, in the assay on HCT-116, with A549 and with HUVEC was above 50 µM throughout.

For the compound `N#CC1=C(N)Oc2c(c3nc4ccccc4nc3c3ccccc23)C12C(=O)N(Cc1cnnn1-c1ccc(Cl)c(Cl)c1)c1ccccc12` (stereo not drawn), the IC50 with MCF7, in the assay on HepG2, with L02, in the assay with HCT-116, in the assay with A549 and in the assay on HUVEC was above 50 µM each time.

On to `N#CC1=C(N)Oc2c(c3nc4ccccc4nc3c3ccccc23)C12C(=O)N(Cc1cnnn1-c1ccccc1Br)c1ccccc12` (stereo not drawn), for which the IC50 in the assay on MCF7, in the assay with HepG2, in the assay on L02, with HCT-116, with A549 and in the assay on HUVEC was above 50 µM in each case.
